Results taken from US20260102340A1, “Therapeutic Formulation” (1000739373 Ontario Ltd., priority 2022, published 2026).
Values joined by “and” are separate entries in the source; they are usually repeats but may differ in a detail not shown here. Identical values can stand only once.

Key:
Assay type in all cases: physicochemical
[1] = Quantitative solubility of melatonin in ethanol/HFA 152a (filtered supersaturated solutions, HPLC)
Procedure: Data was obtained at 5° C. (see FIG. 15 and FIG. 16) and T=20° C. (see FIG. 17 and FIG. 18) and presented as % w/w, μg/50 μl and μg/63 μl (see also Table 4).

[2] = Visual solubility of formulations packaged in glass bottles; details: for Visual appearance in glass bottles: 5° C.
[3] = Melatonin drug residual (total can content) after storage at 40° C. and 75% relative humidity; details: for Initial Melatonin t = 0 (can content) / Initial Melatonin t = 0, mean: 100 μg/50 μL
Procedure: Drug residual measurements (total can content) was determined following storage at 40° C. and 75% relative humidity.
Each canister type was packaged with metering valve 1908 (Aptar™, 50 μl) (MDI batches OZ211003/RJ/A and OZ211003/RJ/C) and metering valves 1904 (Bespak™ 50 μl, with dip tube 1906) (MDI batches OZ211003/RJ/B and OZ211003/RJ/D).

[4] = 6% w/w ethanol, HFA 152a, Plain Aluminum 14 ml canister, Metering Valve 1904 (with dip tube 1906)
[5] = 6% w/w ethanol, HFA 152a, Plain Aluminum 14 ml canister, Metering Valve 1908
[6] = 6% w/w ethanol, HFA 152a, Plasma Coated 14 ml canister, Metering Valve 1904 (with dip tube 1906)
[7] = 6% w/w ethanol, HFA 152a, Plasma coated 14 ml canister, Metering Valve 1908
[8] = Plain Aluminum canister, Metering Valve 1904 (with dip tube 1906), t = 1 month @ 40° C./75% RH, stored Inverted
[9] = Plain Aluminum canister, Metering Valve 1904 (with dip tube 1906), t = 1 month @ 40° C./75% RH, stored Upright
[10] = Plain Aluminum canister, Metering Valve 1904 (with dip tube 1906), t = 3 month @ 40° C./75% RH, stored Inverted (valve down)
[11] = Plain Aluminum canister, Metering Valve 1904 (with dip tube 1906), t = 3 month @ 40° C./75% RH, stored Upright (valve up)
[12] = Plain Aluminum canister, Metering Valve 1908, t = 1 month @ 40° C./75% RH, stored Inverted
[13] = Plain Aluminum canister, Metering Valve 1908, t = 1 month @ 40° C./75% RH, stored Upright
[14] = Plain Aluminum canister, Metering Valve 1908, t = 3 month @ 40° C./75% RH, stored Inverted (valve down)
[15] = Plain Aluminum canister, Metering Valve 1908, t = 3 month @ 40° C./75% RH, stored Upright (valve up)
[16] = Plasma Coated canister, Metering Valve 1904 (with dip tube 1906), t = 1 month @ 40° C./75% RH, stored Inverted
[17] = Plasma Coated canister, Metering Valve 1904 (with dip tube 1906), t = 1 month @ 40° C./75% RH, stored Upright
[18] = Plasma Coated canister, Metering Valve 1904 (with dip tube 1906), t = 3 month @ 40° C./75% RH, stored Inverted (valve down)
[19] = Plasma Coated canister, Metering Valve 1904 (with dip tube 1906), t = 3 month @ 40° C./75% RH, stored Upright (valve up)
[20] = Plasma coated canister, Metering Valve 1908, t = 1 month @ 40° C./75% RH, stored Inverted
[21] = Plasma coated canister, Metering Valve 1908, t = 1 month @ 40° C./75% RH, stored Upright
[22] = Plasma coated canister, Metering Valve 1908, t = 3 month @ 40° C./75% RH, stored Inverted (valve down)
[23] = Plasma coated canister, Metering Valve 1908, t = 3 month @ 40° C./75% RH, stored Upright (valve up)

COc1ccc2[nH]cc(CCNC(C)=O)c2c1 [Melatonin]
*Melatonin μg per 56 mg (63 μl) ([1]; 0% w/w ethanol, T = 5° C.): 8 μg per 56 mg (63 μl) | Melatonin %(w/w) in filtered supersaturated HFA152a solution ([1]; 0% w/w ethanol, T = 5° C.): 0.01 %(w/w) | Melatonin μg per 44 mg (50 μl) ([1]; 0% w/w ethanol, T = 5° C.): 6 μg per 44 mg (50 μl) | *Melatonin μg per 56 mg (63 μl) ([1]; 0% w/w ethanol, T = 20° C.): 9 μg per 56 mg (63 μl) | Melatonin %(w/w) in filtered supersaturated HFA152a solution ([1]; 0% w/w ethanol, T = 20° C.): 0.02 %(w/w) | Melatonin μg per 44 mg (50 μl) ([1]; 0% w/w ethanol, T = 20° C.): 7 μg per 44 mg (50 μl) | *Melatonin μg per 56 mg (63 μl) ([1]; 5% w/w ethanol, T = 5° C.): 121 μg per 56 mg (63 μl) | Melatonin %(w/w) in filtered supersaturated HFA152a solution ([1]; 5% w/w ethanol, T = 5° C.): 0.22 %(w/w) | Melatonin μg per 44 mg (50 μl) ([1]; 5% w/w ethanol, T = 5° C.): 95 μg per 44 mg (50 μl) | *Melatonin μg per 56 mg (63 μl) ([1]; 5% w/w ethanol, T = 20° C.): 159 μg per 56 mg (63 μl) | Melatonin %(w/w) in filtered supersaturated HFA152a solution ([1]; 5% w/w ethanol, T = 20° C.): 0.28 %(w/w) | Melatonin μg per 44 mg (50 μl) ([1]; 5% w/w ethanol, T = 20° C.): 125 μg per 44 mg (50 μl) | *Melatonin μg per 56 mg (63 μl) ([1]; 8% w/w ethanol, T = 5° C.): 270 μg per 56 mg (63 μl) | Melatonin %(w/w) in filtered supersaturated HFA152a solution ([1]; 8% w/w ethanol, T = 5° C.): 0.48 %(w/w) | Melatonin μg per 44 mg (50 μl) ([1]; 8% w/w ethanol, T = 5° C.): 212 μg per 44 mg (50 μl) | *Melatonin μg per 56 mg (63 μl) ([1]; 8% w/w ethanol, T = 20° C.): 395 μg per 56 mg (63 μl) | Melatonin %(w/w) in filtered supersaturated HFA152a solution ([1]; 8% w/w ethanol, T = 20° C.): 0.70 %(w/w) | Melatonin μg per 44 mg (50 μl) ([1]; 8% w/w ethanol, T = 20° C.): 310 μg per 44 mg (50 μl) | *Melatonin μg per 56 mg (63 μl) ([1]; 10% w/w ethanol, T = 5° C.): 339 μg per 56 mg (63 μl) | Melatonin %(w/w) in filtered supersaturated HFA152a solution ([1]; 10% w/w ethanol, T = 5° C.): 0.60 %(w/w) | Melatonin μg per 44 mg (50 μl) ([1]; 10% w/w ethanol, T = 5° C.): 266 μg per 44 mg (50 μl) | *Melatonin μg per 56 mg (63 μl) ([1]; 10% w/w ethanol, T = 20° C.): 456 μg per 56 mg (63 μl) | Melatonin %(w/w) in filtered supersaturated HFA152a solution ([1]; 10% w/w ethanol, T = 20° C.): 0.82 %(w/w) | Melatonin μg per 44 mg (50 μl) ([1]; 10% w/w ethanol, T = 20° C.): 359 μg per 44 mg (50 μl) | *Melatonin μg per 56 mg (63 μl) ([1]; 15% w/w ethanol, T = 5° C.): 588 μg per 56 mg (63 μl) | Melatonin %(w/w) in filtered supersaturated HFA152a solution ([1]; 15% w/w ethanol, T = 5° C.): 1.05 %(w/w) | Melatonin μg per 44 mg (50 μl) ([1]; 15% w/w ethanol, T = 5° C.): 462 μg per 44 mg (50 μl) | *Melatonin μg per 56 mg (63 μl) ([1]; 15% w/w ethanol, T = 20° C.): 817 μg per 56 mg (63 μl) | Melatonin %(w/w) in filtered supersaturated HFA152a solution ([1]; 15% w/w ethanol, T = 20° C.): 1.46 %(w/w) | Melatonin μg per 44 mg (50 μl) ([1]; 15% w/w ethanol, T = 20° C.): 642 μg per 44 mg (50 μl) | Visual solubility ([2]; 50 μg/50 μl in 5% ethanol and HFA 134a, T=5° C. and T=20° C.): confirmed visually | Visual solubility ([2]; 100 μg/50 μl (5% w/w ethanol), HFA 152a, 4° C. and 20° C.): soluble | Visual solubility in glass bottles ([2]; 100 μg/50 μl in 12% w/w ethanol and HFA 134a, T=5° C. and T=20° C.): confirmed visually | Visual appearance in glass bottles ([2]; 100 μg/50 μl, 6% w/w ethanol in HFA 152a): clear solutions | Visual appearance in glass bottles ([2]; 200 μg/50 μl, 8% w/w ethanol in HFA 152a): clear solutions | Visual solubility ([2]; 500 μg/50 μl (15% w/w ethanol), HFA 152a, 4° C. and 20° C.): soluble | Initial Melatonin t = 0 (can content) [3, 4]: 15408 µg and 15450 µg and 15897 µg | Initial Melatonin t = 0, mean [3, 4]: 15.6 mg | Initial Melatonin t = 0 (can content) [3, 5]: 16200 µg and 15676 µg and 15379 µg | Initial Melatonin t = 0, mean [3, 5]: 15.8 mg | Initial Melatonin t = 0 (can content) [3, 6]: 15417 µg and 15682 µg and 15292 µg | Initial Melatonin t = 0, mean [3, 6]: 15.5 mg | Initial Melatonin t = 0 (can content) [3, 7]: 15430 µg and 15517 µg and 15810 µg | Initial Melatonin t = 0, mean [3, 7]: 15.6 mg | Residual melatonin at 3-month ([3]; MDIs stored valve down): 93% to 96 | Residual Melatonin [3, 8]: 15162 µg and 14967 µg | Residual Melatonin % of t = 0 [3, 8]: 97 % of t = 0 | Residual Melatonin [3, 9]: 14959 µg and 15331 µg | Residual Melatonin % of t = 0 [3, 9]: 97 % of t = 0 | Residual Melatonin [3, 10]: 14652 µg and 14318 µg | Residual Melatonin % of t = 0 [3, 10]: 93 % of t = 0 | Residual Melatonin [3, 11]: 14721 µg and 14847 µg | Residual Melatonin % of t = 0 [3, 11]: 98 % of t = 0 | Residual Melatonin [3, 12]: 15171 µg and 15131 µg | Residual Melatonin % of t = 0 [3, 12]: 98 % of t = 0 | Residual Melatonin [3, 13]: 15403 µg and 15581 µg | Residual Melatonin % of t = 0 [3, 13]: 100 % of t = 0 | Residual Melatonin [3, 14]: 14920 µg and 14914 µg | Residual Melatonin % of t = 0 [3, 14]: 96 % of t = 0 | Residual Melatonin [3, 15]: 15600 µg and 15422 µg | Residual Melatonin % of t = 0 [3, 15]: 100 % of t = 0 | Residual Melatonin [3, 16]: 14872 µg and 14984 µg | Residual Melatonin % of t = 0 [3, 16]: 97 % of t = 0 | Residual Melatonin [3, 17]: 14944 µg and 15211 µg | Residual Melatonin % of t = 0 [3, 17]: 98 % of t = 0 | Residual Melatonin [3, 18]: 14634 µg and 14510 µg | Residual Melatonin % of t = 0 [3, 18]: 94 % of t = 0 | Residual Melatonin [3, 19]: 14805 µg and 14789 µg | Residual Melatonin % of t = 0 [3, 19]: 98 % of t = 0 | Residual Melatonin [3, 20]: 15024 µg and 14980 µg | Residual Melatonin % of t = 0 [3, 20]: 96 % of t = 0 | Residual Melatonin [3, 21]: 15578 µg and 15444 µg | Residual Melatonin % of t = 0 [3, 21]: 100 % of t = 0 | Residual Melatonin [3, 22]: 14661 µg and 14791 µg | Residual Melatonin % of t = 0 [3, 22]: 94 % of t = 0 | Residual Melatonin [3, 23]: 15461 µg and 15469 µg | Residual Melatonin % of t = 0 [3, 23]: 100 % of t = 0 | Residual melatonin at 1-month ([3]; all packaging and storage conditions, 40° C./75% RH): 96-98% | Residual melatonin at 3-month ([3]; stored valve up, both canister types, metering valve 1904 (Bespak with dip tube 1906)): 98% | Residual melatonin at 3-month ([3]; stored valve up, both canister types, metering valve 1908 (Aptar)): 100% | Initial time point residual, % of the target formulation ([3]; t = 0, 100 μg/50 μl, 6% w/w ethanol, HFA 152a): 97.5±1.7%
